In US20260200897A1, “4-((5-(3-(4-(PYRIDIN-2-YL)CYCLOPENTYL)-1H-PYRAZOL-3-YL)AMINO)-BENZENESULFONAMIDE DERIVATIVES AND SIMILAR COMPOUNDS AS CDK INHIBITORS FOR THE TREATMENT OF CANCER” (BeOne Medicines I GmbH, priority 2023, published 2026):

Tests used:
CDK2/Cyclin E1 = CDK2/Cyclin E1 (Homo sapiens, UniProt P24941); assay: CDK2/Cyclin E1 TR-FRET biochemical assay, 1 mM ATP; settings: 0.15 μM Rb (Ser780)-biotin substrate, 90 min reaction, Table 2
Experimental: (§1) Compounds disclosed herein were tested for inhibition of CDK2/Cyclin E1 or CDK1/Cyclin B kinase in an assay based on the time-resolved fluorescence-resonance energy transfer (TR-FRET) methodology. The assay was carried out in 384-well low volume black plates in a reaction mixture containing CDK2/Cyclin E1 or CDK1/Cyclin B1, 1 mM ATP for CDK2/Cyclin E1 and CDK1/Cyclin B1, 0.15 μM Rb (Ser780)-biotin substrate and 0-10 μM compound in buffer containing 50 mM HEPES pH7.0, 0.02% NaN3, 0.01% BSA, 0.1 mM Orthovanadate, 50 mM MgCl2, 1 mM DTT and 0.005% Tween-20. The kinase was incubated with compound for 60 minutes at room temperature and the reaction was initiated by the addition of ATP and Rb (Ser780)-biotin substrate. After reaction at room temperature for 90 minutes, an equal volume of stop/detection solution was added according to the manufacture's instruction (Cisbio Bioassays). The stop/detection solution contained Streptavidin-XL665 and Anti-pRb (Ser780) mAb-Eu Cryptate in Detection buffer (Cisbio Bioassays). Plates were incubated at room temperature for 60 minutes, and the TR-FRET signals (ex337 nm, em665 nm/620 nm) were recorded on a PHERAstar FSX plate reader (BMG Labtech). The inhibition percentage of CDK2/Cyclin E1 or CDK1/Cyclin B1 kinase activity in presence of increasing concentrations of compounds was calculated based on the ratio of fluorescence at 665 nm to that at 620 nm. The IC50 for each compound was derived from fitting the data to the four-parameter logistic equation by Dotmatics.

CDK1/Cyclin B1 = CDK1/Cyclin B1 (Homo sapiens, UniProt P06493); assay: CDK1/Cyclin B1 TR-FRET biochemical assay, 1 mM ATP; settings: 0.15 μM Rb (Ser780)-biotin substrate, 90 min reaction, Table 2
Chain of CDK1/Cyclin B1 (P06493 whole entry): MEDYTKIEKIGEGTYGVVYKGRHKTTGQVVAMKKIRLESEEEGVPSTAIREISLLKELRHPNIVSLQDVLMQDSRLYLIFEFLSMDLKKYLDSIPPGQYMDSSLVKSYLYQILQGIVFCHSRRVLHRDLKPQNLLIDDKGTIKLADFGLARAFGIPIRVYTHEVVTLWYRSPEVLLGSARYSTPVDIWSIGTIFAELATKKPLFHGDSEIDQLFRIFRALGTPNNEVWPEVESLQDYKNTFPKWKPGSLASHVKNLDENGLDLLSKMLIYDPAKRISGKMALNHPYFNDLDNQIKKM
Chain of CDK1/Cyclin B1 (P14635 whole entry partner): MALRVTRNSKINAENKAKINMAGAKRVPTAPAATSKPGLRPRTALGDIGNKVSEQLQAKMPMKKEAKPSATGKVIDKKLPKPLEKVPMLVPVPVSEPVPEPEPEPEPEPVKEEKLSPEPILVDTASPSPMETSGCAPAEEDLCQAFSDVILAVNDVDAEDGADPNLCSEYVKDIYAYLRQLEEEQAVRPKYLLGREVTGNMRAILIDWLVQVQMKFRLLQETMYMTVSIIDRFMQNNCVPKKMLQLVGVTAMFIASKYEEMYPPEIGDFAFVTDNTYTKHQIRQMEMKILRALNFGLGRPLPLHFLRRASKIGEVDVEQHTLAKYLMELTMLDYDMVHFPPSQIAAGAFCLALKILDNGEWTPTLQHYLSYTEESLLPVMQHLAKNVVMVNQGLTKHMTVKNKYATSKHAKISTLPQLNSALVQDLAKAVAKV
Experimental: as §1

In the case of Cc1cccc(C2CCC(c3cc(Nc4ccc5c(c4F)CNS5(=O)=O)n[nH]3)C2)n1 (stereo not shown) [Example 120, 4-fluoro-5-((5-(3-(6-methylpyridin-2-yl)cyclopentyl)-1H-pyrazol-3-yl)amino)-2,3-dihydrobenzo[d]isothiazole 1,1-dioxide], the IC50 (CDK2/Cyclin E1) is reported as 4410 nM and the IC50 (CDK1/Cyclin B1) is reported as > 10000 nM.

In the case of CCOC(=O)c1nc(C2CCC(c3cc(Nc4ccc5c(c4F)CNS5(=O)=O)n[nH]3)C2)oc1C(C)(C)C (stereo not shown) [Example 114, ethyl 5-(tert-butyl)-2-(3-(3-((4-fluoro-1,1-dioxido-2,3-dihydrobenzo[d]isothiazol-5-yl)amino)-1H-pyrazol-5-yl)cyclopentyl)oxazole-4-carboxylate], the IC50 (CDK2/Cyclin E1) is reported as 429 nM and the IC50 (CDK1/Cyclin B1) is reported as > 10000 nM.

For CC(C)(C)c1cnc(C2CCC(c3cc(Nc4ccc(S(N)(=O)=O)cc4F)n[nH]3)C2)o1 (single isomer, unassigned) [Example 6d, 4-((5-(3-(5-(tert-butyl)oxazol-2-yl)cyclopentyl)-1H-pyrazol-3-yl)amino)-3-fluorobenzenesulfonamide], the IC50 (CDK2/Cyclin E1) was 503 nM and the IC50 (CDK1/Cyclin B1) was > 10000 nM.

With CC(C)(C)c1cnc(C2CCC(c3cc(Nc4ccc(S(N)(=O)=O)cc4F)n[nH]3)C2)o1 (single isomer, unassigned) [Example 6b, 4-((5-(3-(5-(tert-butyl)oxazol-2-yl)cyclopentyl)-1H-pyrazol-3-yl)amino)-3-fluorobenzenesulfonamide] the IC50 (CDK2/Cyclin E1) was 88 nM and the IC50 (CDK1/Cyclin B1) was > 10000 nM.

For CC(C)c1cnc(C2CCC(c3cc(Nc4ccc5c(c4F)CNS5(=O)=O)n[nH]3)C2)o1 (single isomer, unassigned) [Example 109a, 4-fluoro-5-((5-(3-(5-isopropyloxazol-2-yl)cyclopentyl)-1H-pyrazol-3-yl)amino)-2,3-dihydrobenzo[d]isothiazole 1,1-dioxide], the IC50 (CDK2/Cyclin E1) was 8.6 nM and the IC50 (CDK1/Cyclin B1) was 2870 nM.

Cc1cccc(C2CCC(c3cc(Nc4ccc5c(c4F)CS(=O)(=O)N5)n[nH]3)C2)n1 (stereo not shown) [Example 159, 4-fluoro-5-((5-(3-(6-methylpyridin-2-yl)cyclopentyl)-1H-pyrazol-3-yl)amino)-1,3-dihydrobenzo[c]isothiazole 2,2-dioxide] was tested, and the IC50 (CDK2/Cyclin E1) was 1040 nM and the IC50 (CDK1/Cyclin B1) was > 10000 nM.

Compound CN1c2ccc(Nc3cc([C@H]4CC[C@@H](c5ncc(C(C)(C)C)o5)C4)[nH]n3)cc2CS1(=O)=O [Example 141, 5-((5-((1S,3R)-3-(5-(tert-butyl)oxazol-2-yl)cyclopentyl)-1H-pyrazol-3-yl)amino)-1-methyl-1,3-dihydrobenzo[c]isothiazole 2,2-dioxide] has an IC50 (CDK2/Cyclin E1) of 0.6 nM and an IC50 (CDK1/Cyclin B1) of 135 nM.

CC(C)c1cnc(C2CCC(c3cc(Nc4ccc5c(c4)CS(=O)(=O)N5)n[nH]3)C2)o1 (single isomer, unassigned) [Example 138a, cis-5-((5-(3-(5-isopropyloxazol-2-yl)cyclopentyl)-1H-pyrazol-3-yl)amino)-1,3-dihydrobenzo[c]isothiazole 2,2-dioxide] was tested, and the IC50 (CDK2/Cyclin E1) was 1.8 nM and the IC50 (CDK1/Cyclin B1) was 160 nM.

For CC(C)(C)c1cc(C2CCC(c3cc(Nc4ccc5c(c4F)CS(=O)(=O)N5)n[nH]3)C2)ccn1 (stereo not shown) [Example 161, 5-((5-(3-(2-(tert-butyl)pyridin-4-yl)cyclopentyl)-1H-pyrazol-3-yl)amino)-4-fluoro-1,3-dihydrobenzo[c]isothiazole 2,2-dioxide], the IC50 (CDK2/Cyclin E1) was 1060 nM and the IC50 (CDK1/Cyclin B1) was > 10000 nM.

With CC(C)(O)c1cc(C2CCC(c3cc(Nc4ccc5c(c4F)CNS5(=O)=O)n[nH]3)C2)n[nH]1 (stereo not shown) [Example 101, 4-fluoro-5-((5-(3-(5-(2-hydroxypropan-2-yl)-1H-pyrazol-3-yl)cyclopentyl)-1H-pyrazol-3-yl)amino)-2,3-dihydrobenzo[d]isothiazole 1,1-dioxide] the IC50 (CDK2/Cyclin E1) was 564 nM and the IC50 (CDK1/Cyclin B1) was > 10000 nM.

CC(C)(C)c1ccc(C2CCC(c3cc(Nc4ccc5c(c4F)CS(=O)(=O)C5)n[nH]3)C2)o1 (stereo not shown) [Example 176, 5-((5-(3-(5-(tert-butyl)furan-2-yl)cyclopentyl)-1H-pyrazol-3-yl)amino)-4-fluoro-1,3-dihydrobenzo[c]thiophene 2,2-dioxide] was tested, and the IC50 (CDK2/Cyclin E1) was 438 nM and the IC50 (CDK1/Cyclin B1) was > 10000 nM.
